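Cells were grown in 96-well plates and exposed to each compound for 48 hours at five concentrations; endpoints were interpolated linearly between bracketing concentrations, or set to the highest concentration if not reached. GI50 = concentration required for 50% inhibition of growth.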 Calls of active or inactive are those of the source. No stated cut-off is given here; in the data, active = GI50 up to about 1.1 µM and inactive = higher.

26 molecules from ChEMBL document CHEMBL1201862, “PubChem BioAssay data set” (2004) can be followed below.

Among the test systems are DLD-1; DMS-114; DMS-273; HOP-18; KM-20L2; M19-MEL; SNB-78; LXFL 529; RXF 631.
Experiment in all cases: NCI tumour cell line growth inhibition, 48 h

As to `CC(=O)NC1=C(C)C(=O)c2c(nc3n2CCC3O)C1=N` (stereo unspecified), the GI50 was 11.6 µM (inactive) in the test on DLD-1; 3.4 µM (inactive) with DMS-114; 17.8 µM (inactive) in the test with DMS-273; 17.6 µM (inactive) in the test with HOP-18; 19.5 µM (inactive) with KM-20L2; 2.36 µM (inactive) in the test with M19-MEL. For the same molecule, in the test on SNB-78, the GI50 is 3.05 µM (inactive).

As for `Cc1nc(C(N)=S)sc1C(=O)CC(=O)C(=O)Nc1c(C(C)C)cccc1C(C)C`, the GI50 in the test with DLD-1 was 55.2 µM (inactive); with DMS-114, 26.7 µM (inactive); in the test on HOP-18, 35.9 µM (inactive); with KM-20L2, 41.3 µM (inactive); with LXFL 529 it was 52 µM (inactive); in the test on M19-MEL it was 34.1 µM (inactive). Besides, the GI50 in the test with SNB-78 was 66.2 µM (inactive).

For the molecule `O=c1cc(-c2ccccc2)[nH]c2cc(F)cc(F)c12`, the GI50 was 28.5 µM (inactive) in the test on DLD-1; 24.7 µM (inactive) with DMS-114; 10.3 µM (inactive) with DMS-273; 43 µM (inactive) with HOP-18; 53.6 µM (inactive) with LXFL 529; 31.6 µM (inactive) with M19-MEL.

With `COC(=O)/C(=N/NC(N)=O)C(C(=O)OC)C(=O)C(=O)Nc1ccc(Cl)cc1` (stereo unspecified), the GI50 with DLD-1 was > 100 µM (inactive); in the test with DMS-114, > 71.8 µM (inactive); with DMS-273, > 100 µM (inactive); in the test on HOP-18 it was > 100 µM (inactive); in the test with KM-20L2, > 100 µM (inactive); in the test on LXFL 529, > 100 µM (inactive). Also, the GI50 in the test with M19-MEL was > 100 µM (inactive).

Regarding `C1CCC(N=C2N(C3CCCCC3)C(=NC3CCCCC3)N2C2CCCCC2)CC1`, the GI50 in the test with DLD-1, in the test with DMS-114, in the test on DMS-273, with HOP-18, in the test on KM-20L2 and in the test on LXFL 529 was > 100 µM (inactive) in each case. Also, the GI50 in the test with M19-MEL was > 100 µM (inactive).

As for `ClC1c2ccccc2C2(c3ccccc3)OOC1(c1ccccc1)O2` (stereo unspecified), the GI50 is 0.267 µM (active) in the test with DMS-114, 1.52 µM (inactive) with DMS-273, 1.68 µM (inactive) in the test with KM-20L2 and 1.45 µM (inactive) in the test on SNB-78.

Consider `CCN(CC)C(=O)Cc1[nH][nH]c(=O)c1C(=O)N(CC)CC`, for which the GI50 with DLD-1, with DMS-114, in the test with DMS-273, in the test on HOP-18, with KM-20L2 and with LXFL 529 was > 100 µM (inactive) in each case. For the same molecule, the GI50 in the test with M19-MEL and in the test with SNB-78 was > 100 µM (inactive) in each case.

Take `O=Cc1ccccc1OCCOc1cc(OCCOc2ccccc2C=O)c(OCCOc2ccccc2C=O)cc1OCCOc1ccccc1C=O`: the GI50 is 40.7 µM (inactive) in the test with DLD-1; 47.3 µM (inactive) in the test with DMS-114; 52.2 µM (inactive) in the test with DMS-273; > 49.4 µM (inactive) in the test with HOP-18; > 100 µM (inactive) in the test with KM-20L2; 33.7 µM (inactive) with LXFL 529. The values for the GI50 with M19-MEL and with SNB-78 were > 100 µM (inactive) and 45.1 µM (inactive), respectively.

On to `CN(C)CCNC(=O)c1cccc2nc3ccc4cccnc4c3nc12`, for which the GI50 in the test on DLD-1 was 0.24 µM (active); with DMS-114, 0.533 µM (active); in the test with DMS-273, 0.118 µM (active); with HOP-18, 1.78 µM (inactive); with M19-MEL, 0.43 µM (active); with RXF 631, 0.132 µM (active). Further, the GI50 in the test on SNB-78 was 0.482 µM (active).

As to `CN(C)CCNC(=O)c1cc([N+](=O)[O-])cc2ccc(-c3ccccc3)nc12`, the GI50 in the test on DLD-1 is 9.2 µM (inactive); in the test with DMS-114, 7.16 µM (inactive); in the test with DMS-273, 5.62 µM (inactive); in the test with HOP-18, 4.97 µM (inactive); in the test on KM-20L2 it was 6.46 µM (inactive); in the test on LXFL 529, 18.3 µM (inactive). The GI50 is 5.93 µM (inactive) in the test on M19-MEL and 17.8 µM (inactive) in the test with SNB-78.

On to `NC1CCCCC1.O=P(O)(O)C1(P(=O)(O)O)CC1`, for which the GI50 with DMS-114, in the test with DMS-273, in the test on KM-20L2, in the test on LXFL 529, with M19-MEL and in the test on SNB-78 was > 100 µM (inactive) each time.

For `N#CC(C(=O)CCC(=O)Nc1cccc(C(F)(F)F)c1)c1ccccc1` (stereo unspecified), the GI50 in the test with DLD-1, in the test on DMS-114, in the test with DMS-273, with KM-20L2, in the test on LXFL 529 and with M19-MEL was > 100 µM (inactive) each time. For the same molecule, the GI50 with SNB-78 is > 100 µM (inactive).

As for `O=c1[nH]c(=O)n(C2OC3COC2C3O)cc1F` (stereo unspecified), the GI50 in the test with DLD-1, with DMS-273, with HOP-18, in the test with KM-20L2, in the test on LXFL 529 and in the test on RXF 631 was > 100 µM (inactive) each time. Besides, the GI50 with SNB-78 was > 100 µM (inactive).

Regarding `c1ccc(C2=NOC3C4CCC(C4)C23)cc1` (stereo unspecified), the GI50 in the test on DLD-1, with DMS-114, in the test with DMS-273, with HOP-18, in the test on LXFL 529 and in the test on M19-MEL was > 100 µM (inactive) throughout. Besides, the GI50 in the test with SNB-78 is > 100 µM (inactive).

`O=C(Nc1c(O)[nH]c(=S)[nH]c1=O)c1ccc2ccccc2n1`: the GI50 with DLD-1, in the test on DMS-114, in the test with HOP-18, in the test with KM-20L2, in the test on LXFL 529 and in the test with M19-MEL was > 100 µM (inactive) in each case. For the same molecule, the GI50 in the test on RXF 631 and in the test on SNB-78 was > 100 µM (inactive) throughout.

With `CC(=O)CC(=O)/C=C/c1cccs1`, the GI50 in the test with DLD-1 was 44 µM (inactive); with DMS-114, 59.4 µM (inactive); in the test on KM-20L2, 98.6 µM (inactive); with LXFL 529, 85.3 µM (inactive); in the test on M19-MEL, 83.9 µM (inactive).

As to `COc1ccc(/C=C/C(=O)C(C)C)cc1`, the GI50 in the test on DLD-1 was 63.1 µM (inactive); with DMS-114, 15.2 µM (inactive); in the test with DMS-273 it was 38.5 µM (inactive); with HOP-18, 41.4 µM (inactive); in the test with KM-20L2 it was 25.1 µM (inactive); in the test on LXFL 529 it was 21.7 µM (inactive). Moreover, the GI50 with M19-MEL was 59.6 µM (inactive); with SNB-78 it was 14.9 µM (inactive).

In the case of `Cc1c2cc[n+](COC(=O)c3ccccc3)cc2c(C)c2c1[nH]c1ccccc12`, the GI50 in the test with DMS-114 is 0.75 µM (active); in the test on HOP-18, < 0.01 µM (active); with KM-20L2, 0.641 µM (active); in the test with LXFL 529, 0.506 µM (active); in the test on M19-MEL, 0.743 µM (active); in the test on SNB-78 it was 1.32 µM (inactive).

As for `CCC/C=C1\CCC(CN(C)C)C1=O` (stereo unspecified), the GI50 is 2.38 µM (inactive) in the test on DLD-1; 15.6 µM (inactive) with DMS-114; 11.9 µM (inactive) in the test on DMS-273; 23.4 µM (inactive) in the test on HOP-18; 10.3 µM (inactive) with KM-20L2; 1.82 µM (inactive) with LXFL 529. In the test with M19-MEL, the GI50 is 12.9 µM (inactive).

For the molecule `CC(C)(C)C(=O)ON1N=NC2C3CC(OCc4ccccc4)(OCc4ccccc4)C(O3)C21` (stereo unspecified), the GI50 is 15.6 µM (inactive) with DLD-1; 22.3 µM (inactive) in the test with DMS-273; 24.2 µM (inactive) with HOP-18; 28.4 µM (inactive) in the test with KM-20L2; 11.1 µM (inactive) in the test on LXFL 529; 15.8 µM (inactive) in the test with M19-MEL. Also, the GI50 is 24.7 µM (inactive) in the test with RXF 631 and 26 µM (inactive) in the test with SNB-78.

For `COC1=C2C[C@@H](C)C[C@@H](OC)[C@@H](O)[C@H](C)/C=C(\C)[C@@H](OC(N)=O)[C@H](OC)/C=C\C=C(/C)C(=O)NC(=CC1=O)C2=O`, the GI50 is 0.0679 µM (active) with DLD-1; 0.117 µM (active) in the test on DMS-273; 0.159 µM (active) in the test with HOP-18; 0.0266 µM (active) in the test on KM-20L2; 0.0267 µM (active) with LXFL 529; 0.71 µM (active) with RXF 631. Moreover, the GI50 in the test with SNB-78 is 1.04 µM (active).

Take `CCCCCCCCCC(=O)OCC1OC(n2cc(F)c(=O)[nH]c2=O)C(N)C(OC(=O)CCCCCCCCC)C1O` (stereo unspecified): the GI50 in the test with DMS-114 was 15.7 µM (inactive); in the test on DMS-273 it was 20.4 µM (inactive); in the test on KM-20L2 it was 19 µM (inactive); in the test on LXFL 529 it was 16.6 µM (inactive); in the test with M19-MEL, 17.4 µM (inactive); with SNB-78 it was 15.8 µM (inactive).

On to `CN[C@@H](C)[C@H](N)c1ccccc1`, for which the GI50 with DLD-1, with DMS-273, with HOP-18, in the test with LXFL 529, in the test on RXF 631 and in the test on SNB-78 was > 100 µM (inactive) in each case.

Consider `O=C1Nc2cc([N+](=O)[O-])c(Br)cc2C1=O`, for which the GI50 with DLD-1 was 22.2 µM (inactive); in the test with DMS-114, 17.5 µM (inactive); in the test with DMS-273, 20.1 µM (inactive); with KM-20L2, 15.3 µM (inactive); with M19-MEL, 16.4 µM (inactive); in the test with RXF 631 it was 18.5 µM (inactive). Besides, in the test with SNB-78, the GI50 was 23.3 µM (inactive).

With `O=C(Nc1cccc(Cl)c1)C(=O)C(C(=O)c1ccc2ccccc2c1)C1OC(=O)c2ccccc21` (stereo unspecified), the GI50 in the test on DLD-1 is 16.3 µM (inactive); in the test on DMS-114, 11.5 µM (inactive); in the test with DMS-273 it was 24.7 µM (inactive); in the test with HOP-18, 12.1 µM (inactive); in the test with KM-20L2, 33.7 µM (inactive); with LXFL 529, 7.48 µM (inactive). For the same molecule, the values for the GI50 with M19-MEL, in the test with RXF 631 and with SNB-78 were 13.8 µM (inactive), 16.9 µM (inactive) and 5.9 µM (inactive), respectively.

On to `CN(C)CCNC(=O)c1cccc2nc3c4ccccc4c4ccccc4c3nc12`, for which the GI50 with DLD-1 was 1.56 µM (inactive); with DMS-273, 2.81 µM (inactive); in the test with HOP-18 it was 8.71 µM (inactive); with KM-20L2, 3.8 µM (inactive); in the test with LXFL 529 it was 2.19 µM (inactive); with M19-MEL, 1.88 µM (inactive). Moreover, the GI50 with RXF 631 was 2.33 µM (inactive); in the test on SNB-78 it was 14.8 µM (inactive).
